From patent US20040038855A1 (priority 1999, published 2004)
pIC50, pKi: −log10 of the molar value.

Assays:
[1] = biological target: T1, human dopamine D4 receptor (Homo sapiens, UniProt P21917); assay: Binding affinity at the human dopamine D4 receptor; settings: Table 3d; * = >50000; read-out: hD4 Ki
T1 construct: purchased BioSignal, Inc. (Montreal, Canada)
Source text: Other receptors: Cell membranes expressing human dopamine D1, D2, D4 and rat D3 receptors were purchased through BioSignal, Inc. (Montreal, Canada). Binding assays using the histamine H1 receptor; dopamine receptors; and α1A, α1B, and α2 adrenergic receptors may be carried out according to the procedures described in U.S. Pat. No. 5,780,485, the disclosure of which is hereby incorporated by reference in its entirety into this application. Binding assays using the dopamine D5 receptor may be carried out according to the procedures described in U.S. Pat. No. 5,882,855, the disclosure of which is hereby incorporated by reference in its entirety into this application. Binding assays for the human α1D adrenergic receptor may be carried out according to the procedures described in U.S. Pat. No. 6,156,518, the disclosure of which is hereby incorporated by reference in its entirety into this application.

[2] = system: micturition reflex, anesthetized female Sprague Dawley rats; assay: Distension-induced rhythmic contraction (DIRC) model; format: in vivo, rat; set-up: key: A = Produced a significant increase in contraction interval relative to pre-drug interval; settings: contraction interval, i.v. or i.p.
Experimental: The effects of compounds on the micturition reflex were assessed in the “distension-induced rhythmic contraction” (DIRC), as described in previous publications (e.g. Maggi et al, 1987; Morikawa et al, 1992), and Continuous Slow Transvesicular Infusion (CSTI) models in rats.
Female Sprague Dawley rats weighing approximately 300 g were anesthetized with subcutaneous urethane (1.2 g/kg). The trachea was cannulated with PE240 tubing to provide a clear airway throughout the experiment. A midline abdominal incision was made and the left and right ureters were isolated. The ureters were ligated distally (to prevent escape of fluids from the bladder) and cannulated proximally with PE10 tubing. The incision was closed using 4-0 silk sutures, leaving the PE10 lines routed to the exterior for the elimination of urine. The bladder was canulated via the transurethral route using PE50 tubing inserted 2.5 cm beyond the urethral opening. This cannula was secured to the tail using tape and connected to a pressure transducer. To prevent leakage from the bladder, the cannula was tied tightly to the exterior urethral opening using 4-0 silk.
To initiate the micturition reflex, the bladder was first emptied by applying pressure to the lower abdomen, and then filled with normal saline in […] (maximum 2 ml) until spontaneous bladder contractions occurred (typically 20-40 mmHg at a rate of one contraction every 2 to 3 minutes. Once a regular rhythm was established, vehicle (saline) or Test Compounds were administered i.v. or i.p. to explore their effects on bladder activity. The 5-HT1A antagonist WAY-100635 was given as a positive control. Data were expressed as contraction interval (in seconds) before drug application (basal), or after the application of vehicle or test article.

human MCH1 receptor [3] = biological target: T2, human MCH1 receptor (Homo sapiens, UniProt Q99705); format: cell-based; set-up: expressed in transfected cells; host or cells: COS-7; settings: linear regression, r^2=0.94
Experimental: Guidelines for cell preparation and assay of the second messenger inositol phosphate (IP) are described below for a typical protocol involving transiently transfected Cos-7 cells; For a 96 well microplate format assay, cells are plated at 70,000 cells per well and allowed to incubate for 24 hours after the transfection procedure. The cells are then labeled with 0.5 μCi [^3H]myo-inositol per micro-well over night at 37° C., 5% CO2. Immediately before the assay, the medium is removed and replaced with 90 μl PBS containing 10 mM LiCl. The plates are then incubated for 15 minutes at 37° C., […]. Following the incubation, the transfectants are challenged with agonist (10 μl/well; 10× concentration) for 30 minutes at 37° C., 5% CO2. The challenge is terminated and the cells lysed by the addition of 100 μl cold 5% v/v trichloroacetic acid (TCA), followed by an incubation at 4° C. for greater than 30 minutes. Total IPs are isolated from the lysate by ion exchange chromatography. Briefly, the lysed contents of the wells are transferred to a Multiscreen HV filter plate (Millipore) containing 100 μl Dowex AG1-X8 suspension (50% v/v, water:resin) (200-400 mesh, formate form). The filter plates are placed on a vacuum manifold to wash and elute the resin bed. Each well is first washed 2 times with 200 μl 5 mM myoinositol. Total [^3H]IPs are eluted with 75 μl of 1.2 M ammonium formate/0.1 M formic acid into Wallac 96-well plates. 200 μl of SuperMix scintillation cocktail is added to each well, mixed well, allowed to equilibrate and counted on a Micro Beta Trilux scintillation counter. (Note: The assay may be scaled to a 24 well format by simple adjustment of reagent volumes and employing individual chromatographic columns.)
The expression vector (pEXJ) containing the MCH1 cDNA was transfected by electroporation into Cos-7 cells in combination with an expression vector (pEXJ) containing the Gα16 subunit.

human MCH1 receptor [4] = biological target: T2, human MCH1 receptor; assay: Saturation and competition binding of [3H]Compound 10, membranes of Cos-7 cells transfected with MCH1; set-up: expressed in transfected cells; host or cells: COS-7; settings: 0.4 nM [3H]Compound 10; read-out: IC50, displacement of specific [3H]Compound 10 binding
Experimental: Saturation equilibrium binding of [3H]Compound 10 to the human MCH1 receptor. Membrane preparations from Cos-7 cells transfected with MCH1 were incubated with varying concentrations of [3H]Compound 10 (SA: 56 Ci/mmol) at room temperature for 90 min, in a volume of 0.250 ml. The reaction was terminated by filtration in GF/C filters, and the radioactivity determined by scintillation counting. Non-specific binding was defined as the amount of radioactivity retained in the filter after incubating the reaction mixture in the presence of unlabeled Compound 10 ([…]).
Competition binding of [3H]Compound 10 to the human MCH1 receptor. […] The reaction was terminated by filtration in GF/C filters and the radioactivity bound to the membrane was determined by scintillation counting.
[3H]Compound 10 was tested for its ability to bind to membrane preparations of cells expressing the human MCH1 receptor.

T2 sequence (Q99705 whole entry): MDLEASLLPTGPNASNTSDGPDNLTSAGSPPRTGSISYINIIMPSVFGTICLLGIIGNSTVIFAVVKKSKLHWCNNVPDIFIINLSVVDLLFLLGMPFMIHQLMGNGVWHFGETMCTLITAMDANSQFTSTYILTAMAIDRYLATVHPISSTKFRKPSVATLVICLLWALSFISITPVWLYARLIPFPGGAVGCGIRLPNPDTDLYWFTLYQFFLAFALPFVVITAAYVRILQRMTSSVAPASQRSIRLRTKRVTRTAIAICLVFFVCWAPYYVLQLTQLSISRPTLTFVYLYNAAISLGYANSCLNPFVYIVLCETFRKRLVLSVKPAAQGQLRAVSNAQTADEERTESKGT
T1 sequence (P21917 whole entry): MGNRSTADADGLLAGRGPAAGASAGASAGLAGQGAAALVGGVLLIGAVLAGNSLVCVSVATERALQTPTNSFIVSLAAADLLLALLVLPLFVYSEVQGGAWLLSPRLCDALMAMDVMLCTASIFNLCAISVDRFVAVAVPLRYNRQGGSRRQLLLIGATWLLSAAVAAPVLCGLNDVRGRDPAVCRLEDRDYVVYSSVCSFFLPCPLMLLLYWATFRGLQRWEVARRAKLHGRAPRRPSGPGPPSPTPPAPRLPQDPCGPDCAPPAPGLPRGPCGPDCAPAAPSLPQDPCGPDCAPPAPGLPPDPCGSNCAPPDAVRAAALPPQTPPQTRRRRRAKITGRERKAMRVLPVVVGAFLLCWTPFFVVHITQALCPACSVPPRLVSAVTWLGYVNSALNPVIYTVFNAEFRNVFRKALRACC

For `COCC1=C(C(=O)OC)[C@H](c2ccc(F)c(F)c2)N(C(=O)NCCCN2CCC(c3cccc(NC(C)=O)c3)CC2)C(=O)N1` [Example 10, (+)-1,2,3,6-TETRAHYDRO-1-{N-[4-(3,-ACETAMIDO)-PHENYLPIPERIDIN-1-YL]PROPYL}CARBOXAMIDO-4-METHOXYMETHYL-6-(3,4-DIFLUORO-PHENYL)-2-OXOPYRIMIDINE-5-CARBOXYLIC ACID METHYL ESTER], the pKi [1] was less than 4.30, the “Effect of MCH1 antagonist in the DIRC model” value [2] was “A” and the “slope of the Schild plot” value (human MCH1 receptor [3]) was 0.97±0.2. The pIC50 (human MCH1 receptor [4]) was 9.48.
